Assay results as given in the NIST ThermoML archive (doi:10.1016/j.jct.2006.03.002).

Assay: molar heat capacity at constant pressure
Conditions: 101.33 kPa, Crystal, Small sample (50 mg) DSC

[F-].[Na+] [sodium fluoride]
Conditions | molar heat capacity at constant pressure [J/K/mol]
630.6 K | 58.08
645.6 K | 58.11
675.7 K | 59.55
690.6 K | 59.36
720.6 K | 58.15
735.5 K | 59.11
750.6 K | 58.85
765.6 K | 59.28
795.6 K | 58.36
825.5 K | 58.26
840.4 K | 58.49
855.6 K | 59.14
870.6 K | 58.37
885.5 K | 59.37
900.5 K | 59.7
907.5 K | 59.76
915.5 K | 60.11
922.3 K | 60.21
937.4 K | 60.58
945.5 K | 59.64
952.5 K | 59.98
960.6 K | 60.43
967.5 K | 60.92
975.4 K | 59.89
982.6 K | 60.11
990.5 K | 61.01
997.5 K | 60.91
1012.6 K | 61.02
1027.6 K | 60.56
1042.6 K | 61.86
1057.7 K | 61.63
1072.7 K | 62.08
1087.8 K | 62.41
1102.9 K | 62.25
